# Measured values as given in patent US11865086B2, “Cinnamaldehyde derivative compounds and methods of use for cinnamaldehyde derivative compounds nicotine cessation” (Pacific University, priority 2018, dated 2024).
# “Also recorded” adds a separate entry of the source.
# Legend:
# CYP2A6 [1] = biological target: T1, CYP2A6 (Homo sapiens, UniProt P11509); experiment: IC50 for inhibition of CYP2A6, coumarin hydroxylase activity (7-hydroxycoumarin fluorescence); conditions: Table 1B, structural analogs of CA
# T1 sequence (P11509 1-494): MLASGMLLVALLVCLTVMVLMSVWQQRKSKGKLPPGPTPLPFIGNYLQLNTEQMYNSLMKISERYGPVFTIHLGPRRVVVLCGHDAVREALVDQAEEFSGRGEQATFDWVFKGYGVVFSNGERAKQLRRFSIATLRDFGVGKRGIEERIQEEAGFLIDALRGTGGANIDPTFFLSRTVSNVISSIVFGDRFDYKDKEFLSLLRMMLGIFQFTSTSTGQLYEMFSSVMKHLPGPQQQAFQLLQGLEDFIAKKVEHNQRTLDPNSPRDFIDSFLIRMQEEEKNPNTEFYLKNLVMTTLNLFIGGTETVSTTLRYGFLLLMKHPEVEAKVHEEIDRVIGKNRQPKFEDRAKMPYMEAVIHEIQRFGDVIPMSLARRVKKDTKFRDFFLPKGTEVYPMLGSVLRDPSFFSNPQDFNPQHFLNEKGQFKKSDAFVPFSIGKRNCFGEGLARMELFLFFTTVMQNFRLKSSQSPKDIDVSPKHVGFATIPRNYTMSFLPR
# Excerpt: (§1) A 96-well plate assay and fluorescence spectroscopy may be used to quantify the product, 7-hydroxycoumarin.
# Data was fit using GraphPad Prism.
# CYP2A6 [2] = biological target: T2, CYP2A6 (Homo sapiens, UniProt P11509, K28S/Q25K/Q26K/R27T/W24A); experiment: biochemical
# T2 sequence (P11509 with tags, fused parts or gaps limits assumed): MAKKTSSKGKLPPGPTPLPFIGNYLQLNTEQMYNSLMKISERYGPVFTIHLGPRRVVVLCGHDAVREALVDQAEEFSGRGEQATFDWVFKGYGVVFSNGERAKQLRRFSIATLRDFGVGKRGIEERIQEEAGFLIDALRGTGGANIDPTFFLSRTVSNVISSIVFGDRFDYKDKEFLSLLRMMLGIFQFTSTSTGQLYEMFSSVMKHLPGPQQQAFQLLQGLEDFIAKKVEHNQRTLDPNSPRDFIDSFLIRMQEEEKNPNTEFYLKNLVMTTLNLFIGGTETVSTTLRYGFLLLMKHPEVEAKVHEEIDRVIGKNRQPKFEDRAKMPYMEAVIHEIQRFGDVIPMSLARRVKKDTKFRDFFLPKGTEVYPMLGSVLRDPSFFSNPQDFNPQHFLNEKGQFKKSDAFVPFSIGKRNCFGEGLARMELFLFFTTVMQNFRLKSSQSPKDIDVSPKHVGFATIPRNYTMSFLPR
# Procedure: (§2) Spectral binding studies were conducted using purified heterologously expressed CYP2A6 in Escherichia coli. […] Absorbance changes (A386-A418) may be plotted against added ligand concentrations in order to determine dissociation constants.
# (§3) In more detail, the CYP2A6 enzyme may be heterologously expressed in Escherichia coli and purified. The expression vector, pKK2A6dH may be used to express the enzyme. The vector contains a cDNA sequence that codes for human CYP2A6 with a deletion of the N-terminal transmembrane sequence, an alteration of several residues at the modified N-terminus to increase expression, and four histidine residues added at the C-terminus to aid in purification. […] Expression from the vector may be induced with the addition of IPTG to bacterial cultures. δ-Aminolevulinic acid is added during expression to supplement heme biosynthesis. The enzyme may be purified following previously reported protocols. Briefly, following cell disruption, the solubilized enzyme may be purified using Ni^2+-affinity chromatography and cation-exchange (CM sepharose) chromatography, which may lead to protein of high purity and P450 content.
# [3] = biological target: T3, CYP2A6-mediated nicotine metabolism (Homo sapiens, UniProt P11509); experiment: Model (Equation 2) predicting change in nicotine AUC from mechanism-based inhibition parameters; conditions: Table 5, predicted nicotine AUC
# T3 sequence (P11509 1-494): T1 sequence (P11509 1-494)
# CYP2A6 [4] = biological target: T1, CYP2A6; experiment: Time-dependent inhibition screen, recombinant CYP2A6 system, coumarin hydroxylase readout; conditions: for kinact / kinact/kI: Table 5; for Fold difference (with respect to CA): kinact/kI relative to t-CA; for time-dependent inhibition of CYP2A6, result in words: with NADPH, 7-hydroxycoumarin formation
# Excerpt: (§4) Since this type of inhibition also requires that the inhibitor is initially metabolized by the target enzyme, MBIs may be identified by evaluating the inhibition in the presence and absence of cofactors that are required for activity, such as NADPH for CYPs.
# CYP2A6 [5] = biological target: T1, CYP2A6; experiment: biochemical
# Excerpt: as §4
# CYP2A6 [6] = biological target: T1, CYP2A6; experiment: biochemical; remark: listed apart in the source
# Excerpt: as §1
# Data was fit using GraphPad Prism.
# CYP2A6 [7] = biological target: T1, CYP2A6; experiment: in vitro
# Excerpt: as §4
# CYP2A6 [8] = biological target: T2, CYP2A6; experiment: Spectral ligand binding (KS) to purified CYP2A6 expressed in Escherichia coli; conditions: read-out: Ks
# Procedure: as §2, §3
# [9] = obtained from PubChem and ChemSpider; cited from earlier work
# recombinant CYP2A13 = biological target: T4, recombinant CYP2A13 (Homo sapiens, UniProt Q16696); experiment: Time-dependent inhibition, recombinant CYP2A13 system, coumarin hydroxylase readout; type: biochemical
# T4 sequence (Q16696 1-494): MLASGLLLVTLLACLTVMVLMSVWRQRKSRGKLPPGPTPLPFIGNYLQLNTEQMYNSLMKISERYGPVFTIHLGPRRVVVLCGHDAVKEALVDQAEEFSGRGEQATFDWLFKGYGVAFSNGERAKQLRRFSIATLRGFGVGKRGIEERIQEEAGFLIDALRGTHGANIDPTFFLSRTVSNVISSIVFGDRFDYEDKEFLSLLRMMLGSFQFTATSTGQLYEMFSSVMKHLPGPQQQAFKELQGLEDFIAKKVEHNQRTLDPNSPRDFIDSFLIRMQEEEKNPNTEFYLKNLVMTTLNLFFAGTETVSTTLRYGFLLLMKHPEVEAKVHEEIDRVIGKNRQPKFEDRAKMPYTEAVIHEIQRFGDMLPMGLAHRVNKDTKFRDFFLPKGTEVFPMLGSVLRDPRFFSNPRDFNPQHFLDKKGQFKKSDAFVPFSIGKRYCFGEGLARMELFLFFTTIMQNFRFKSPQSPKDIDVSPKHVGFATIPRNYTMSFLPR
# Excerpt: The above-discussed approach regarding evaluation of selectivity, potency and inhibition parameters of human CYP2A6 by t-CA and structural analogs thereof may be similarly applied to evaluation of the same parameters with regard to CYP2A13.
# [10] = recombinant CYP2A6, probe coumarin
structure (smiles),measurement,setting,value
O=CC=C(c1ccccc1)c1ccccc1 [β-phenyl CA],IC50,CYP2A6 [1],148 µM
"O=CCCc1ccccc1 [hydro-CA, hydrocinnamaldehyde]",Kd,CYP2A6 [2],44.8 µM
same,AUC fold increase,[3],1.71-2.67
same,kinact,CYP2A6 [4],.116 min⁻¹
same,kinact/kI,CYP2A6 [4],0.001365
same,Fold difference (with respect to CA),CYP2A6 [4],0.96
same,"time-dependent inhibition of CYP2A6, result in words",CYP2A6 [4],not to be time-dependent inhibitors
same,Ki,CYP2A6 [5],85 µM
same,IC50,CYP2A6 [6],48.3 µM
same,kinact,CYP2A6 [7]; recombinant enzyme,0.00193 s⁻¹
same,kinact/KI,CYP2A6 [7]; recombinant enzyme,22.7 M⁻¹ s⁻¹
"COc1ccccc1C=CC=O [o-methoxycinnamaldehyde, 2-methoxycinnamaldehyde]",Kd,CYP2A6 [2],1.6 µM
C/C(C=O)=C\c1ccc(C(C)(C)C)cc1 [4-t-butyl-α-methyl-CA],IC50,CYP2A6 [1],348 µM
CCCCCC/C(C=O)=C\c1ccccc1 [α-hexyl-CA],IC50,CYP2A6 [1],64.7 µM
same,"time-dependent inhibition of CYP2A6, result in words",CYP2A6 [4],not to be time-dependent inhibitors
"O=CC=Cc1ccccc1C(F)(F)F [o-trifluoromethyl-CA, 2-trifluoromethylcinnamaldehyde]",Fold difference (with respect to CA),CYP2A6 [4],1.9
same,"time-dependent inhibition of CYP2A6, result in words",CYP2A6 [4],more potent inhibitors than t-CA
same,Ki,CYP2A6 [5],52.6 µM
same,kinact,CYP2A6 [7]; [10],0.00237 s⁻¹
same,kinact/KI,CYP2A6 [7]; [10],45 M⁻¹ s⁻¹
"OC/C=C/c1ccccc1 [cinnamic alcohol, reference compound]",IC50,CYP2A6 [6],354 ± 4.4 µM
CCCC(C=O)=Cc1ccccc1 [α-propyl-CA],Kd,CYP2A6 [8],7.8 µM
same,"time-dependent inhibition of CYP2A6, result in words",CYP2A6 [4],not to be time-dependent inhibitors
ON=CC=Cc1ccccc1 [Cinnamaldehyde oxime],IC50,CYP2A6 [6],8 µM
CN(C)c1ccc(/C=C/C=O)cc1 [4-dimethylamino-CA],IC50,CYP2A6 [1],100 µM
Cc1ccccc1C=CC=O [2-methyl-CA],"time-dependent inhibition of CYP2A6, result in words",CYP2A6 [4],not to be time-dependent inhibitors
"O=C/C=C/c1c(F)cccc1F [2,6-difluoro-CA, 2,6-difluorocinnamaldehyde]",Kd,CYP2A6 [2],7.8 µM
same,Log P,[9],2.3
same,Fold difference (with respect to CA),CYP2A6 [4],3.6
same,"time-dependent inhibition of CYP2A6, result in words",CYP2A6 [4],more potent inhibitors than t-CA
same,Ki,CYP2A6 [5],47.2 µM
same,IC50,CYP2A6 [6],3.9 µM
same,kinact,CYP2A6 [7]; [10],0.00407 s⁻¹
same,kinact/KI,CYP2A6 [7]; [10],86.2 M⁻¹ s⁻¹
O=CC(F)=Cc1ccccc1 [α-fluoro-CA],"time-dependent inhibition of CYP2A6, result in words",CYP2A6 [4],not to be time-dependent inhibitors
N#CC=Cc1ccccc1 [cinnamonitrile],IC50,CYP2A6 [6],8.8 µM
"O=CC(Cl)=Cc1ccccc1 [α-chloro-CA, α-chlorocinnamaldehyde]",Kd,CYP2A6 [2],9.6 µM
same,AUC fold increase,[3],2.44-4.22
same,kinact,CYP2A6 [4],.15 min⁻¹
same,kinact/kI,CYP2A6 [4],0.04399
same,Fold difference (with respect to CA),CYP2A6 [4],30.7
same,Fold difference (with respect to CA),CYP2A6 [4]; listed as α-chloro-cinnamaldehyde,over 30
same,"time-dependent inhibition of CYP2A6, result in words",CYP2A6 [4],substantially more potent time-dependent inhibitor of CYP2A6 than t-CA; also recorded: more potent inhibitors than t-CA
same,Ki,CYP2A6 [5],3.4 µM
same,IC50,CYP2A6 [6],3.3 µM
same,kinact,CYP2A6 [7]; [10],0.0025 s⁻¹
same,kinact/KI,CYP2A6 [7]; [10],733 M⁻¹ s⁻¹
CCC(C=O)=Cc1ccccc1 [α-ethyl-CA],Kd,CYP2A6 [8],3 µM
same,"time-dependent inhibition of CYP2A6, result in words",CYP2A6 [4],not to be time-dependent inhibitors
"O=C(O)/C=C/c1ccccc1 [cinnamic acid, reference compound]",IC50,CYP2A6 [6],> 2500 µM
"CC(C=O)=Cc1ccccc1 [α-methyl-CA, α-methyl-cinnamaldehyde]",Kd,CYP2A6 [2],6.8 µM
same,"time-dependent inhibition of CYP2A6, result in words",CYP2A6 [4],not to be time-dependent inhibitors
same,"time-dependent inhibition of CYP2A6, result in words",CYP2A6 [4]; listed as α-methyl-cinnamaldehyde,not be a time-dependent inhibitor of CYP2A6
same,IC50,CYP2A6 [6],5.3 µM
O=C/C=C/c1ccc(Cl)cc1 [4-chloro-CA],Kd,CYP2A6 [8],48.9 µM
same,IC50,CYP2A6 [1],30.1 µM
CC(C)C(C=O)=Cc1ccccc1 [α-isopropyl-CA],Kd,CYP2A6 [8],3.2 µM
same,"time-dependent inhibition of CYP2A6, result in words",CYP2A6 [4],not to be time-dependent inhibitors
"O=CC=Cc1cccc([N+](=O)[O-])c1 [3-nitro-CA, 3-nitrocinnamaldehyde]",Fold difference (with respect to CA),CYP2A6 [4],0.65
same,Ki,CYP2A6 [5],89.6 µM
same,IC50,CYP2A6 [6],410 µM
same,kinact,CYP2A6 [7]; [10],0.00138 s⁻¹
same,kinact/KI,CYP2A6 [7]; [10],15.5 M⁻¹ s⁻¹
"CC(C=O)=Cc1ccccc1[N+](=O)[O-] [o-nitro-α-methyl-CA, 2-nitro-α-methylcinnamaldehyde]",Fold difference (with respect to CA),CYP2A6 [4],8.7
same,"time-dependent inhibition of CYP2A6, result in words",CYP2A6 [4],more potent inhibitors than t-CA
same,Ki,CYP2A6 [5],19.6 µM
same,kinact,CYP2A6 [7]; [10],0.00405 s⁻¹
same,kinact/KI,CYP2A6 [7]; [10],207 M⁻¹ s⁻¹
O=C/C=C/c1ccc(Br)cc1 [4-bromo-CA],IC50,CYP2A6 [1],58.1 µM
O=C/C=C/c1ccccc1O [2-hydroxy-t-CA],"time-dependent inhibition of CYP2A6, result in words",CYP2A6 [4],not to be time-dependent inhibitors
CCN(CC)c1ccc(/C=C/C=O)cc1 [4-diethylamino-CA],IC50,CYP2A6 [1],451 µM
"O=CC=Cc1ccccc1[N+](=O)[O-] [2-nitro-CA, 2-nitrocinnamaldehyde]",Kd,CYP2A6 [2],47.5 µM
same,Ki,recombinant CYP2A13,30.9 µM
same,kinact,recombinant CYP2A13,0.00203 s⁻¹
same,kinact/KI,recombinant CYP2A13,67.8 M⁻¹ s⁻¹
same,Fold difference (with respect to CA),CYP2A6 [4],11.2
same,"time-dependent inhibition of CYP2A6, result in words",CYP2A6 [4],more potent inhibitors than t-CA
same,Ki,CYP2A6 [5],13.9 µM
same,IC50,CYP2A6 [6],15.1 µM
same,kinact,CYP2A6 [7]; [10],0.00372 s⁻¹
same,kinact/KI,CYP2A6 [7]; [10],267 M⁻¹ s⁻¹
O=C/C=C/c1ccc(F)cc1 [4-fluoro-CA],IC50,CYP2A6 [1],30.1 µM
CCCCC/C(C=O)=C/c1ccccc1 [α-amyl-CA],IC50,CYP2A6 [1],65 µM
same,"time-dependent inhibition of CYP2A6, result in words",CYP2A6 [4],not to be time-dependent inhibitors
"O=CC=Cc1ccc([N+](=O)[O-])cc1 [4-nitro-CA, 4-nitrocinnamaldehyde]",Fold difference (with respect to CA),CYP2A6 [4],0.29
same,Ki,CYP2A6 [5],92.1 µM
same,IC50,CYP2A6 [6],308 µM
same,kinact,CYP2A6 [7]; [10],0.00065 s⁻¹
same,kinact/KI,CYP2A6 [7]; [10],7 M⁻¹ s⁻¹
CCCCC(C=O)=Cc1ccccc1 [α-butyl-CA],Kd,CYP2A6 [8],36.8 µM
same,"time-dependent inhibition of CYP2A6, result in words",CYP2A6 [4],not to be time-dependent inhibitors
